From the NIST ThermoML archive (doi:10.1016/j.jct.2017.12.023)
± gives the expanded uncertainty stated by the source.

Experiment: xn = mol fraction of the nth substance listed
Conditions: 100 kPa, Liquid; for viscosity: Concentric cylinders viscometry; for mass density: Vibrating tube method

CCOS(=O)(=O)[O-].CCn1cc[n+](C)c1 [1-ethyl-3-methylimidazolium ethyl sulfate] + CCCCCCO
Conditions | mass density [kg/m3] | viscosity [mPa·s]
288.15 K, x1 = 0.1016 | 883.62 ± 1.5 | 9.353 ± 0.1
288.15 K, x1 = 0.2016 | 938.59 ± 1.5 | 13.3 ± 0.14
288.15 K, x1 = 0.3005 | 988.2 ± 1.5 | 18.78 ± 0.2
288.15 K, x1 = 0.3989 | 1033.38 ± 1.5 | 26.42 ± 0.28
288.15 K, x1 = 0.4975 | 1075.01 ± 1.5 | 36.71 ± 0.4
288.15 K, x1 = 0.5956 | 1113.22 ± 1.5 | 50.2 ± 0.52
288.15 K, x1 = 0.6647 | 1138.48 ± 1.5 | 61.57 ± 0.66
288.15 K, x1 = 0.7947 | 1182.52 ± 1.5 | 90.12 ± 1.1
288.15 K, x1 = 0.897 | 1214.13 ± 1.6 | 117.32 ± 1.7
288.15 K, x1 = 1 | 1243.07 ± 1.6 | 155.55 ± 2.7
293.15 K, x1 = 0.1016 | 880.04 ± 1.5 | 7.885 ± 0.086
293.15 K, x1 = 0.2016 | 935.01 ± 1.5 | 11.15 ± 0.12
293.15 K, x1 = 0.3005 | 984.62 ± 1.5 | 15.65 ± 0.17
293.15 K, x1 = 0.3989 | 1029.83 ± 1.5 | 21.79 ± 0.23
293.15 K, x1 = 0.4975 | 1071.48 ± 1.5 | 29.93 ± 0.32
293.15 K, x1 = 0.5956 | 1109.72 ± 1.5 | 40.24 ± 0.43
293.15 K, x1 = 0.6647 | 1135 ± 1.5 | 48.86 ± 0.53
293.15 K, x1 = 0.7947 | 1179.07 ± 1.5 | 69.76 ± 0.78
293.15 K, x1 = 0.897 | 1210.7 ± 1.6 | 90.21 ± 1.1
293.15 K, x1 = 1 | 1239.66 ± 1.6 | 117.88 ± 1.8
298.15 K, x1 = 0.1016 | 876.47 ± 1.5 | 6.825 ± 0.074
298.15 K, x1 = 0.2016 | 931.44 ± 1.5 | 9.64 ± 0.1
298.15 K, x1 = 0.3005 | 981.06 ± 1.5 | 13.44 ± 0.14
298.15 K, x1 = 0.3989 | 1026.28 ± 1.5 | 18.54 ± 0.2
298.15 K, x1 = 0.4975 | 1067.96 ± 1.5 | 25.04 ± 0.27
298.15 K, x1 = 0.5956 | 1106.23 ± 1.5 | 33.31 ± 0.36
298.15 K, x1 = 0.6647 | 1131.53 ± 1.5 | 40.06 ± 0.43
298.15 K, x1 = 0.7947 | 1175.63 ± 1.5 | 55.99 ± 0.58
298.15 K, x1 = 0.897 | 1207.28 ± 1.6 | 71.04 ± 0.8
298.15 K, x1 = 1 | 1236.27 ± 1.6 | 91.26 ± 1.2
303.15 K, x1 = 0.1016 | 872.88 ± 1.5 | 5.918 ± 0.064
303.15 K, x1 = 0.2016 | 927.87 ± 1.5 | 8.313 ± 0.09
303.15 K, x1 = 0.3005 | 977.51 ± 1.5 | 11.56 ± 0.12
303.15 K, x1 = 0.3989 | 1022.76 ± 1.5 | 15.8 ± 0.17
303.15 K, x1 = 0.4975 | 1064.47 ± 1.5 | 21.17 ± 0.23
303.15 K, x1 = 0.5956 | 1102.76 ± 1.5 | 27.85 ± 0.3
303.15 K, x1 = 0.6647 | 1128.08 ± 1.5 | 33.14 ± 0.36
303.15 K, x1 = 0.7947 | 1172.21 ± 1.5 | 45.6 ± 0.49
303.15 K, x1 = 0.897 | 1203.87 ± 1.5 | 57.05 ± 0.6
303.15 K, x1 = 1 | 1232.87 ± 1.6 | 72.1 ± 0.81
308.15 K, x1 = 0.1016 | 869.3 ± 1.5 | 5.153 ± 0.056
308.15 K, x1 = 0.2016 | 924.31 ± 1.5 | 7.242 ± 0.079
308.15 K, x1 = 0.3005 | 973.98 ± 1.5 | 10.01 ± 0.11
308.15 K, x1 = 0.3989 | 1019.25 ± 1.5 | 13.6 ± 0.15
308.15 K, x1 = 0.4975 | 1060.99 ± 1.5 | 18.02 ± 0.19
308.15 K, x1 = 0.5956 | 1099.3 ± 1.5 | 23.46 ± 0.25
308.15 K, x1 = 0.6647 | 1124.65 ± 1.5 | 27.77 ± 0.3
308.15 K, x1 = 0.7947 | 1168.81 ± 1.5 | 37.67 ± 0.4
308.15 K, x1 = 0.897 | 1200.48 ± 1.5 | 46.51 ± 0.5
308.15 K, x1 = 1 | 1229.49 ± 1.6 | 57.98 ± 0.61
313.15 K, x1 = 0.1016 | 865.72 ± 1.5 | 4.475 ± 0.049
313.15 K, x1 = 0.2016 | 920.76 ± 1.5 | 6.296 ± 0.068
313.15 K, x1 = 0.3005 | 970.44 ± 1.5 | 8.67 ± 0.094
313.15 K, x1 = 0.3989 | 1015.75 ± 1.5 | 11.7 ± 0.13
313.15 K, x1 = 0.4975 | 1057.52 ± 1.5 | 15.4 ± 0.17
313.15 K, x1 = 0.5956 | 1095.87 ± 1.5 | 19.84 ± 0.21
313.15 K, x1 = 0.6647 | 1121.24 ± 1.5 | 23.34 ± 0.25
313.15 K, x1 = 0.7947 | 1165.42 ± 1.5 | 31.23 ± 0.34
313.15 K, x1 = 0.897 | 1197.11 ± 1.5 | 38.33 ± 0.41
313.15 K, x1 = 1 | 1226.13 ± 1.6 | 47.26 ± 0.51
318.15 K, x1 = 0.1016 | 862.11 ± 1.5 | 3.975 ± 0.044
318.15 K, x1 = 0.2016 | 917.2 ± 1.5 | 5.593 ± 0.061
318.15 K, x1 = 0.3005 | 966.93 ± 1.5 | 7.683 ± 0.083
318.15 K, x1 = 0.3989 | 1012.26 ± 1.5 | 10.3 ± 0.11
318.15 K, x1 = 0.4975 | 1054.07 ± 1.5 | 13.44 ± 0.14
318.15 K, x1 = 0.5956 | 1092.45 ± 1.5 | 17.17 ± 0.18
318.15 K, x1 = 0.6647 | 1117.84 ± 1.5 | 20.06 ± 0.22
318.15 K, x1 = 0.7947 | 1162.05 ± 1.5 | 26.51 ± 0.28
318.15 K, x1 = 0.897 | 1193.76 ± 1.5 | 32.18 ± 0.35
318.15 K, x1 = 1 | 1222.79 ± 1.6 | 39.25 ± 0.42
323.15 K, x1 = 0.1016 | 858.5 ± 1.5 | 3.566 ± 0.039
323.15 K, x1 = 0.2016 | 913.65 ± 1.5 | 4.959 ± 0.054
323.15 K, x1 = 0.3005 | 963.42 ± 1.5 | 6.841 ± 0.074
323.15 K, x1 = 0.3989 | 1008.79 ± 1.5 | 9.127 ± 0.099
323.15 K, x1 = 0.4975 | 1050.64 ± 1.5 | 11.85 ± 0.13
323.15 K, x1 = 0.5956 | 1089.05 ± 1.5 | 14.98 ± 0.16
323.15 K, x1 = 0.6647 | 1114.46 ± 1.5 | 17.41 ± 0.19
323.15 K, x1 = 0.7947 | 1158.7 ± 1.5 | 22.64 ± 0.24
323.15 K, x1 = 0.897 | 1190.42 ± 1.5 | 27.41 ± 0.29
323.15 K, x1 = 1 | 1219.46 ± 1.6 | 32.94 ± 0.35
